Tests used:
[1] = molecular target: T1, LTAaj (L-threonine aldolase from Aeromonas jandaei; L-allo-threonine aldolase) (Aeromonas jandaei, UniProt O07051); test: UV-vis spectroscopy of internal aldimine ([…]-420 nm); type: binding; conditions: 50 mM sodium phosphate pH 8.0, 22 °C; covalent Schiff base with K199
T1 construct: gene ltaA; C-terminal His-tag, expressed in E. coli BL21(DE3), Ni-NTA purified, homotetramer, PLP-dependent
T1 sequence (O07051 1-338): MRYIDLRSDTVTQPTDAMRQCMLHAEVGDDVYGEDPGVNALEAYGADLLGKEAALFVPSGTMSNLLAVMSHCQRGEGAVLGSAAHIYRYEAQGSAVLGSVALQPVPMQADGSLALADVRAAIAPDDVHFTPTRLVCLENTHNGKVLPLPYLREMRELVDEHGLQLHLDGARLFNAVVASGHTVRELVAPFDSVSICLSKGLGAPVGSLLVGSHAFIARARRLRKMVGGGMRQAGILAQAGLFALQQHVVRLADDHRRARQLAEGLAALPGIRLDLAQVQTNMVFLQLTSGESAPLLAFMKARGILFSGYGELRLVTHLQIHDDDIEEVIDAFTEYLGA

[2] = molecular target: T1, LTAaj (L-threonine aldolase from Aeromonas jandaei; L-allo-threonine aldolase); test: UV-vis spectroscopy of external aldimine ([…] nm) and quinonoid ([…] nm); type: binding; conditions: 50 mM sodium phosphate pH 8.0, 22 °C, 0.1 M glycine; PLP enzyme; covalent

Row | Compound | UV-vis spectroscopy of internal aldimine (410-420 nm) [1] | UV-vis spectroscopy of external aldimine (420 nm) and quinonoid (495 nm) [2]
1 | Cc1ncc(COP(=O)(O)O)c(C=O)c1O [PLP] | Formation of the (A) internal aldimine | –
2 | NCC(=O)O [glycine] | – | external aldimine with the glycine substrate in the wild type LTAaj and its mutants

Reference: paper PMC5986058 (FEBS Open Bio, 2018)
